# Molecular target: T1, ERα (Homo sapiens, UniProt P03372)
# T1 construct: host or cells: MCF7
# T1 sequence (P03372 1-595): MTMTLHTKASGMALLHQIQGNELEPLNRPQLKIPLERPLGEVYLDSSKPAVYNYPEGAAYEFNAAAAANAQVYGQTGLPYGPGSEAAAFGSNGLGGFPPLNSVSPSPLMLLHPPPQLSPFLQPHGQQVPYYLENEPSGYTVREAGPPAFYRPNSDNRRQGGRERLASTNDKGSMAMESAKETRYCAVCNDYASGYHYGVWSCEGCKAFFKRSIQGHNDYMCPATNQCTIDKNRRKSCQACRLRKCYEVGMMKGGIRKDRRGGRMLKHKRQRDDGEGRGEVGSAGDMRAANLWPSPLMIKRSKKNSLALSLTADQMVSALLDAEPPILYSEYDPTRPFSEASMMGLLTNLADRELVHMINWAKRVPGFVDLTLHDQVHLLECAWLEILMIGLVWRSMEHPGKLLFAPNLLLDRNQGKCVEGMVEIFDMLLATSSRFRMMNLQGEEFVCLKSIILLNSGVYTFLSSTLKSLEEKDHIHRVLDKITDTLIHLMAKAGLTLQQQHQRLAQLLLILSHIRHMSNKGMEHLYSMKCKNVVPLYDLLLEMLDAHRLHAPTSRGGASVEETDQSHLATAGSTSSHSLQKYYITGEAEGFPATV
# Experiment: Estrogen receptor degradation activity: breast cancer cell ERα in cell western assay
# Format: cell-based
# Conditions: MCF7 cells, 4 hours, relative to fulvestrant 0.1 μM positive control
# Method: Test: Estrogen Receptor Degradation Activity Said test involves measuring the in vitro degradation activity of the compounds of the Table 1a. The measurements of the degradation activities were made using a breast cancer cell ERα in cell western assay as described hereunder. MCF7 cells (ATCC) were seeded in 384 wells microplate (collagen coated) at a concentration of 10000 cells/30 μL per well in red phenol free MEM alpha medium (invitrogen) containing 5% charcoal dextran striped FBS. The following day, 9 points serial 1:5 dilution of each compound was added to the cells in 2.5p L at final concentrations ranging from 0.3-0.0000018 μM (in table 2), or 0.1 μM for fulvestrant (using as positive control). At 4 hours post compound addition the cells were fixed by adding 25 μL of formalin (final concentration 5% formalin containing 0.1% triton) for 10 minutes at room temperature and then washed twice with PBS. Then, 50 μL of LI-COR blocking buffer containing 0.1% Triton was added to plate for 30 minutes at room temperature. LI-COR blocking buffer was removed and cells were incubated overnight at cold room with 50 μL anti-ER rabbit monoclonal antibody (Thermo scientific MA1-39540) diluted at 1:1000 in LI-COR blocking buffer containing 0.1% tween-20. Wells which were treated with blocking buffer but no antibody were used as background control. Wells were washed twice with PBS (0.1% tween-20) and incubated at 37° C. for 60 minutes in LI-COR (0.1% tween-20) containing goat anti-rabbit antibody Alexa 488 (1:1000) and Syto-64 a DNA dye (2 μM final concentration). Cells were then washed 3 times in PBS and scanned in ACUMEN explorer (TTP-Labtech). Integrated intensities in the green fluorescence and red fluorescence were measured to determine the levels of ERα and DNA respectively. The degradation activity with respect to estrogen receptors in this test is given by the concentration which degrades 50% of the estrogen receptor (or IC50) in nM. The % of ERα levels decrease were determined as follows: % inhibition=100*(1−(sample−fulvestrant: DMSO−fulvestrant)).
row,SMILES,% Degradation At 0.3 μM [%]
1,"COc1ccc(C2=C(c3ccc(CC4CN(CCCF)C4)cc3)c3ccc(C(=O)O)cc3CCC2)c(C(F)(F)F)c1.Cl [Compound 25, 9-(4-((1-(3-fluoropropyl)azetidin-3-yl)methyl)phenyl)-8-(4-methoxy-2-(trifluoromethyl)phenyl)-6,7-dihydro-5H-benzo[7]annulene-3-carboxylic acid, hydrochloride]",92
2,"Cl.O=C(O)c1ccc2c(c1)CCCC(c1ccc(C(F)(F)F)cc1C1CC1)=C2c1ccc(CC2CN(CCCF)C2)cc1 [Compound 32, 8-(2-cyclopropyl-4-(trifluoromethyl)phenyl)-9-(4-((1-(3-fluoropropyl)azetidin-3-yl)methyl)phenyl)-6,7-dihydro-5H-benzo[7]annulene-3-carboxylic acid, hydrochloride]",91
3,"O=C(O)c1ccc2c(c1)CCCC(c1ccccc1OC(F)(F)F)=C2c1ccc(CC2CN(CCCF)C2)cc1 [Compound 30, 9-(4-((1-(3-fluoropropyl)azetidin-3-yl)methyl)phenyl)-8-(2-(trifluoromethoxy)phenyl)-6,7-dihydro-5H-benzo[7]annulene-3-carboxylic acid]",92
4,"COc1c(C2=C(c3ccc(CC4CN(CCCF)C4)cc3)c3ccc(C(=O)O)cc3CCC2)cccc1C(F)(F)F [Compound 4, 9-(4-((1-(3-fluoropropyl)azetidin-3-yl)methyl)phenyl)-8-(2-methoxy-3-(trifluoromethyl)phenyl)-6,7-dihydro-5H-benzo[7]annulene-3-carboxylic acid]",83
5,"O=C(O)c1ccc2c(c1)CCCC(c1cccc3c1CCCC3)=C2c1ccc(CC2CN(CCCF)C2)cc1 [Compound 2, 9-(4-((1-(3-fluoropropyl)azetidin-3-yl)methyl)phenyl)-8-(5,6,7,8-tetrahydronaphthalen-1-yl)-6,7-dihydro-5H-benzo[7]annulene-3-carboxylic acid]",86
6,"CC1(C)CCC(C2=C(c3ncc(CC4CN(CCC(F)F)C4)cc3F)c3ccc(C(=O)O)cc3CCC2)CC1 [Compound 13, 9-(5-((1-(3,3-difluoropropyl)azetidin-3-yl)methyl)-3-fluoropyridin-2-yl)-8-(4,4-dimethylcyclohexyl)-6,7-dihydro-5H-benzo[7]annulene-3-carboxylic acid]",64
7,"Cc1cccc(C(F)(F)F)c1C1=C(c2ccc(CC3CN(CCCF)C3)cc2)c2ccc(C(=O)O)cc2CCC1 [Compound 33, 9-(4-((1-(3-fluoropropyl)azetidin-3-yl)methyl)phenyl)-8-(2-methyl-6-(trifluoromethyl)phenyl)-6,7-dihydro-5H-benzo[7]annulene-3-carboxylic acid]",91
8,"COc1cccc(Cl)c1C1=C(c2ccc(CC3CN(CCCF)C3)cc2)c2ccc(C(=O)O)cc2CCC1 [Compound 44, 8-(2-chloro-6-methoxyphenyl)-9-(4-((1-(3-fluoropropyl)azetidin-3-yl)methyl)phenyl)-6,7-dihydro-5H-benzo[7]annulene-3-carboxylic acid]",92
9,"O=C(O)c1ccc2c(c1)CCCC(c1cccc3c1CCCO3)=C2c1ccc(CC2CN(CCCF)C2)cc1 [Compound 12, 8-(chroman-5-yl)-9-(4-((1-(3-fluoropropyl)azetidin-3-yl)methyl)phenyl)-6,7-dihydro-5H-benzo[7]annulene-3-carboxylic acid]",86

# Continued, values first:
row,% Degradation At 0.3 μM [%],SMILES
1,92,"COc1cc(C(F)(F)F)ccc1C1=C(c2ccc(CC3CN(CCCF)C3)cc2)c2ccc(C(=O)O)cc2CCC1.Cl [Compound 16, 9-(4-((1-(3-fluoropropyl)azetidin-3-yl)methyl)phenyl)-8-(2-methoxy-4-(trifluoromethyl)phenyl)-6,7-dihydro-5H-benzo[7]annulene-3-carboxylic acid, hydrochloride]"
2,91,"Cc1cccc(F)c1C1=C(c2ccc(CC3CN(CCCF)C3)cc2)c2ccc(C(=O)O)cc2CCC1.Cl [Compound 41, 8-(2-fluoro-6-methylphenyl)-9-(4-((1-(3-fluoropropyl)azetidin-3-yl)methyl)phenyl)-6,7-dihydro-5H-benzo[7]annulene-3-carboxylic acid, hydrochloride]"
3,91,"Cc1cc(C2=C(c3ccc(CC4CN(CCCF)C4)cc3)c3ccc(C(=O)O)cc3CCC2)ccc1C(F)F.Cl [Compound 42, 8-(4-(difluoromethyl)-3-methylphenyl)-9-(4-((1-(3-fluoropropyl)azetidin-3-yl)methyl)phenyl)-6,7-dihydro-5H-benzo[7]annulene-3-carboxylic acid, hydrochloride]"
4,90,"Cc1cccc(C2=C(c3ccc(CC4CN(CCCF)C4)cc3)c3ccc(C(=O)O)cc3CCC2)c1C(F)F.Cl [Compound 54, 8-(2-(difluoromethyl)-3-methylphenyl)-9-(4-((1-(3-fluoropropyl)azetidin-3-yl)methyl)phenyl)-6,7-dihydro-5H-benzo[7]annulene-3-carboxylic acid, hydrochloride]"
5,90,"Cc1cccc(C(F)F)c1C1=C(c2ccc(CC3CN(CCCF)C3)cc2)c2ccc(C(=O)O)cc2CCC1 [Compound 66, 8-(2-(difluoromethyl)-6-methylphenyl)-9-(4-((1-(3-fluoropropyl)azetidin-3-yl)methyl)phenyl)-6,7-dihydro-5H-benzo[7]annulene-3-carboxylic acid]"
6,92,"COc1cccc(F)c1C1=C(c2ccc(CC3CN(CCCF)C3)cc2)c2ccc(C(=O)O)cc2CCC1 [Compound 45, 8-(2-fluoro-6-methoxyphenyl)-9-(4-((1-(3-fluoropropyl)azetidin-3-yl)methyl)phenyl)-6,7-dihydro-5H-benzo[7]annulene-3-carboxylic acid]"
7,90,"Cc1c(O)cccc1C1=C(c2ccc(CC3CN(CCCF)C3)cc2)c2ccc(C(=O)O)cc2CCC1.Cl [Compound 61, 9-(4-((1-(3-fluoropropyl)azetidin-3-yl)methyl)phenyl)-8-(3-hydroxy-2-methylphenyl)-6,7-dihydro-5H-benzo[7]annulene-3-carboxylic acid, hydrochloride]"
8,95,"COc1ccc(C(F)F)c(C2=C(c3ccc(CC4CN(CCCF)C4)cc3)c3ccc(C(=O)O)cc3CCC2)c1.Cl [Compound 60, 8-(2-(difluoromethyl)-5-methoxyphenyl)-9-(4-((1-(3-fluoropropyl)azetidin-3-yl)methyl)phenyl)-6,7-dihydro-5H-benzo[7]annulene-3-carboxylic acid, hydrochloride]"
9,100,"COc1c(F)ccc(C)c1C1=C(c2ccc(CC3CN(CCCF)C3)cc2)c2ccc(C(=O)O)cc2CCC1 [Compound 65, 8-(3-fluoro-2-methoxy-6-methylphenyl)-9-(4-((1-(3-fluoropropyl)azetidin-3-yl)methyl)phenyl)-6,7-dihydro-5H-benzo[7]annulene-3-carboxylic acid]"
10,91,"COc1cc(C)cc(C)c1C1=C(c2ccc(CC3CN(CCCF)C3)cc2)c2ccc(C(=O)O)cc2CCC1 [Compound 72, 9-(4-((1-(3-fluoropropyl)azetidin-3-yl)methyl)phenyl)-8-(2-methoxy-4,6-dimethylphenyl)-6,7-dihydro-5H-benzo[7]annulene-3-carboxylic acid]"
11,92,"COc1cccc(C)c1C1=C(c2ccc(CC3CN(CCCF)C3)cc2)c2ccc(C(=O)O)cc2CCC1.Cl [Compound 48, 9-(4-((1-(3-fluoropropyl)azetidin-3-yl)methyl)phenyl)-8-(2-methoxy-6-methylphenyl)-6,7-dihydro-5H-benzo[7]annulene-3-carboxylic acid, hydrochloride]"
12,92,"Cc1cc(C2=C(c3ccc(CC4CN(CCCF)C4)cc3)c3ccc(C(=O)O)cc3CCC2)c(C)cc1F [Compound 31, 8-(4-fluoro-2,5-dimethylphenyl)-9-(4-((1-(3-fluoropropyl)azetidin-3-yl)methyl)phenyl)-6,7-dihydro-5H-benzo[7]annulene-3-carboxylic acid]"

# From patent publication US20250263390A1, “NOVEL SUBSTITUTED 6,7-DIHYDRO-5H-BENZO[7]ANNULENE COMPOUNDS AND THEIR DERIVATIVES, PROCESSES FOR THEIR PREPARATION AND THERAPEUTIC USES THEREOF” (SANOFI, priority 2022, published 2025)
